Data from patent US11957732B2, “Compositions and methods for sensitizing low responsive tumors to cancer therapy” (priority 2016, dated 2024).
Bridge positions count the residues as written; N and C are the ends. Square brackets hold non-standard residues; d marks the D form. Ends that are not written are not given here. hPhe = N[C@@H](CCc1ccccc1)C(=O)O; Cit = NC(=O)NCCC[C@H](N)C(=O)O

What was measured:
[1] = test system: SGC-7901 gastric cancer cells; assay: Growth suppression, apoptosis and IC50 in gastric cancer cells SGC-7901; type: cell-based; settings: Homo sapiens, read-out: IC50 (IC50 drift, DOX only or AMP-001/DOX combination); SGC-7901 cells
[2] = test system: MGC-803 gastric cancer cells; assay: Growth suppression, apoptosis and IC50 in gastric cancer cells MGC-803; type: cell-based; settings: Homo sapiens, MGC-803, read-out: IC50 (IC50 drift, DOX only or AMP-001/DOX combination)
iCell Cardiomyocytes = assay: cells; settings: Homo sapiens, Cardiomyocyte, read-out: IC50 in cardiomyocytes
Method: Cardiomyocytes were derived from this engineered stem cell clone line as follows. Stem cell aggregates were formed from single cells and cultured in suspension in medium containing zebrafish bFGF (basic fibroblast growth factor) and fetal bovine serum. Upon observation of beating cardiac aggregates, cultures were subjected to blasticidin selection at 25 ug/ml to enrich the cardiomyocyte population. Cardiomyocyte aggregate cultures were maintained in Dulbecco's modified Eagle's medium (DMEM) containing 10% fetal bovine serum during cardiomyocyte selection through the duration of the culture prior to cryopreservation. At 30 to 32 days of culture the enriched, stem cell-derived cardiomyocytes were subjected to enzymatic dissociation using 0.5% trypsin to obtain single cell suspensions of purified cardiomyocytes, which were >98% cardiac troponin-T (cTNT) positive. These cells (iCell® Cardiomyocytes) were cryopreserved and stored in liquid nitrogen before delivery to Ionic Transport Assays from Cellular Dynamics International, Madison, WI.
For this study, single vials containing≈4.5×10^6 cardiomyocytes were thawed by immersing the frozen cryo-vial in a 37° C. water bath, transferring thawed cardiomyocytes into a 50 ml tube and diluting them with room temperature plating medium (iCell® Cardiomyocyte Plating Medium (iCPM), Cellular Dynamics International). […]

MGC-803 xenograft = assay: Synergy with doxorubicin in gastric cancer animal model in vivo; design: species or system athymic BALB/cA nu/nu female mice; settings: 1 mg/kg i.p. every other day for 3 weeks
[3] = test system: MDA-MB-231 triple negative breast cancer cells; assay: Cell death / apoptosis induction, concentration dependent treatment (FACS); type: cell-based; settings: TNBC MDA-MB-231 cells, read-out: cell death effect IC-50
Method: Briefly, MDA-MB-231 cells are seeded in 12-well culture plates and grown to 80% confluency, followed by 72 h treatment with various concentrations of drugs in various combinations; untreated MDA-MB-231 cells are used as control. After the completion of treatment time cells are trypsinized, washed, and analyzed for dead or apoptotic cells by staining with propidium iodide (10 μg/ml) for 15 min, followed by flow cytometry (FACS Aria Ill, BD Biosciences, San Jose, CA, USA) at the Stanford FACS Facility. Data are analyzed by Flow Jo FACS analysis software (Tree Star, Ashland, OR, USA).

MDA-MB-231 tumor cells = assay: Synergistic cell death effect of AMP compounds with chemotherapy (doxorubicin, carboplatin); type: cell-based
Method: MMP2 cleavable AMP-008 was dissolved in culture medium and sonicated for 2 min each and repeated for 3 times. After the cells treated with different concentration of doxorubicin HCl (Bedford Lab, Bedford, OH), AMP compounds alone or combination of doxorubicin and AMP compounds were tested for 17 hrs incubation respectively, the cells were washed three times with PBS (pH 7.4) and incubated with Cy5.5 Annexin-V (BD Bioscience Pharmingen) according to the instructions of the manufacture. The cells were imaged using Nikon Eclipse TE-300 fluorescence microscope and counted under Ex/Em 620-680 nm nm/700-750 nm.

Row | IC50 [1] | IC50 [2] | Compound | IC50 (iCell Cardiomyocytes) | extent of tumor regression (MGC-803 xenograft) | IC50 [3] | synergistic effect when both were administered together (MDA-MB-231 tumor cells; AMP compound and doxorubicin administered together) | cell death, synergistic (not additive) effect (MDA-MB-231 tumor cells; pretreatment with AMP compound for 6 hrs followed by 1 μM doxorubicin)
1 | 0.436 µM | 1.08 µM | COc1cccc2c1C(=O)c1c(O)c3c(c(O)c1C2=O)C[C@@](O)(C(=O)CO)C[C@@H]3O[C@H]1C[C@H](N)[C@H](O)[C@H](C)O1 [doxorubicin] | 9.6 µM | reasonable |  |  | 
2 |  |  | AMP-004: human beta-defensin joined to MMP2 cleavable peptide, SEQ ID NO: 003, three disulfide bonds (Ac-EGGGP[Cit]G[hPhe]YLDHYNCVSSGGQCLYSACPIFTKIQGTCYRGKAKCCK; disulfide 15-44, 22-37, 27-45) |  |  | ~5 µM | Synergistic effect was same | greater than 80%
